For 48 compounds, IC50 results are on record in patent US20070265256A1, “Phosphodiesterase 10 inhibitors” (priority 2006, published 2007).

Structures are written as SMILES.

This experiment has as its target T1, mPDE10A7 (Mus musculus, UniProt Q8CA95).
T1 sequence (Q8CA95 446-763 limits assumed): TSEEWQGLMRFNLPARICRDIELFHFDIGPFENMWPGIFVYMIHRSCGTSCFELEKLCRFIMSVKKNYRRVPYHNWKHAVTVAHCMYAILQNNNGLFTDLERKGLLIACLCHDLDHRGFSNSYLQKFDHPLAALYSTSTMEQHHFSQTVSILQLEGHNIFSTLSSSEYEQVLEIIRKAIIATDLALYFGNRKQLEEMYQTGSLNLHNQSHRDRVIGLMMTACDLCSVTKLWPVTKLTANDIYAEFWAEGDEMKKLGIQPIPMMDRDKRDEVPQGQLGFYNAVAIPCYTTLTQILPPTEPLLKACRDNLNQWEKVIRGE
Briefly: mPDE10A7 enzyme inhibition (IMAP fluorescence polarization). The class given is biochemical. The note with it: fluorescein labeled cAMP or cGMP substrate. On the procedure:
To analyze the enzyme activity, 5 μL of serial diluted mPDE10A7 containing lysate were incubated with equal volumes of diluted (100-fold) fluorescein labeled cAMP or cGMP for 30 minutes in MDC HE 96-well assay plates at room temperature. Both the enzyme and the substrates were diluted in the following assay buffer: Tris/HCl (pH 8.0) 50 mM, MgCl2 5 mM, 2-mercaptoethanol 4 mM, BSA 0.33 mg/mL. After incubation, the reaction was stopped by adding 20 μL of diluted (400-fold) binding reagents and was incubated for an hour at room temperature. The plates were counted in an Analyst GT (Molecular Devices) for fluorescence polarization. An IMAP Assay kit (Molecular Device) was used to assess enzyme properties of mmPDE10A7. Data were analyzed with SoftMax Pro.
To check the inhibition profile, 10 μL of serial diluted compounds were incubated with 30 μl of diluted PDE enzymes in a 96-well polystyrene assay plate for 30 minutes at room temperature. After incubation, 5 μL of the compound-enzyme mixture were aliquoted into a MDC HE black plate, mixed with 5 μL of 100-fold diluted fluorescein labeled substrates (cAMP or cGMP), and incubated for 30 minutes at room temperature. The reaction was stopped by adding 20 μL of diluted binding reagents and counted in an Analyst GT for fluorescence polarization. The data were analyzed with SoftMax Pro.
A general note: Polarisation of emitted light reports the rotation of a fluorescent probe.
For orientation: IC50 means the midpoint of a concentration-inhibition curve. Low values mean inhibition by little substance, high ones a need for much substance. `COc1cc2nncc(-c3cnn(Cc4cccc(C(F)(F)F)c4)c3)c2cc1OC` [Cpd 26, 6,7-Dimethoxy-4-{1-[3-(trifluoromethyl)benzyl]-1H-pyrazol-4-yl}cinnoline]: inhibition was half-maximal at 182 nM (IC50).

As to `COCCNc1ccc(-c2cnnc3cc(OC)c(OC)cc23)cn1` [Cpd 62], the IC50 worked out at 36.2 nM.

Turning to `COc1cc2nncc(-c3ccc(NCC4CCN4C(=O)OC(C)(C)C)nc3)c2cc1OC` (stereo not drawn) [Cpd 65], the IC50 was found to be 66.6 nM. Regarding `COc1cc2nncc(-c3ccc(OCC4CC4)nc3)c2cc1OC` [Cpd 89, 4-(6-(cyclopropylmethoxy)pyridin-3-yl)-6,7-dimethoxycinnoline], the IC50 stood at 33.8 nM. Compound `COc1cc2nncc(-c3cccc(NC(C)=O)c3)c2cc1OC` [Cpd 14, N-[3-(6,7-dimethoxycinnolin-4-yl)phenyl]acetamide hydroformate] yielded an IC50 of 43 nM.

Regarding `COc1cc2nncc(-c3cnn(Cc4ccccc4C#N)c3)c2cc1OC` [Cpd 28, 2-{[4-(6,7-Dimethoxycinnolin-4-yl)-1H-pyrazol-1-yl]methyl}benzonitrile], half-maximal inhibition (IC50) was put at 101 nM. In the case of `COc1cc2nncc(-c3cnn(Cc4ccc(F)cc4)c3)c2cc1OC` [Cpd 35, 4-[1-(4-fluorobenzyl)-1H-pyrazol-4-yl]-6,7-dimethoxycinnoline hydroformate], 10.4 nM corresponded to half-maximal inhibition (IC50). To `COc1cc2nncc(-c3ccc(OCc4ccc5ccccc5n4)cc3)c2cc1OC` [Cpd 68] belongs 106 nM. To `COc1cc2nncc(-c3ccc(CN4CC(C(=O)O)C4)cc3)c2cc1OC` [Cpd 101, 1-(4-(6,7-dimethoxycinnolin-4-yl)benzyl)azetidine-3-carboxylic acid] belongs 231 nM.

The compound `CNC1CCN(c2ccc(-c3cnnc4cc(OC)c(OC)cc34)cn2)CC1` [Cpd 79] displayed an IC50 of 362 nM. In the case of `COc1cc2nncc(-c3ccnc(N4CCOCC4)c3F)c2cc1OC` [Cpd 42] it was 62 nM; in that of `COc1cc2nncc(-c3ccc(NCCN)nc3)c2cc1OC` [Cpd 63], 614 nM; in that of `COc1cc2nncc(-c3ccc(Nc4ccc(N(C)C)cc4)nc3)c2cc1OC` [Cpd 88], 179 nM. With `COc1cc2nncc(-c3ccc(Nc4ccccc4)nc3)c2cc1OC` [Cpd 81], the IC50 amounted to 89.1 nM. In the case of `COc1cc2nncc(-c3cccc(-c4cnn(C)c4)c3)c2cc1OC` [Cpd 5, 6,7-dimethoxy-4-[3-(1-methyl-1H-pyrazol-4-yl)phenyl]cinnoline hydroformate] it was 79.8 nM; in that of `COc1cc2nncc(-c3ccc(N4CCOCC4)nc3)c2cc1OC` [Cpd 33, 6,7-Dimethoxy-4-(6-morpholin-4-ylpyridin-3-yl)cinnoline], 11.1 nM. To `COc1cc2nncc(-c3ccc(F)c(NC(C)=O)c3)c2cc1OC` [Cpd 146] belongs 41.5 nM; to `COc1cc2nncc(-c3ccc(NCCc4ccccn4)nc3)c2cc1OC` [Cpd 93], 17.9 nM; to `COc1cc2nncc(N3CCc4[nH]nc(C(=O)NC5CC5)c4C3)c2cc1OC` [Cpd 7, N-cyclopropyl-5-(6,7-dimethoxycinnolin-4-yl)-4,5,6,7-tetrahydro-1H-pyrazolo[4,3-c]pyridine-3-carboxamide], 19.3 nM. To `COc1cc2nncc(-c3cccc(C4=NC(C)(C)CO4)c3)c2cc1OC` [Cpd 8, 4-[3-(4,4-Dimethyl-4,5-dihydro-1,3-oxazol-2-yl)phenyl]-6,7-dimethoxycinnoline] belongs 30.6 nM; to `COc1cc2nncc(-c3ccc(Nc4ccc(-c5cnco5)cc4)nc3)c2cc1OC` [Cpd 118], 38.6 nM; to `COc1cc2nncc(-c3ccc(N4CCC(OC)C4)nc3)c2cc1OC` (stereo not drawn) [Cpd 55], 10.5 nM. `COc1cc2nncc(-c3cnn(Cc4ccc(OC(F)(F)F)cc4)c3)c2cc1OC` [Cpd 32, 6,7-dimethoxy-4-{1-[4-(trifluoromethoxy)benzyl]-1H-pyrazol-4-yl}cinnoline] registered an IC50 of 459 nM. To `COc1cc2nncc(-c3ccc(N4CCC(F)(F)CC4)nc3)c2cc1OC` [Cpd 56] belongs 29.5 nM; to `COc1cc2nncc(-c3ccc(NCc4cccc(OC(F)(F)F)c4)nc3)c2cc1OC` [Cpd 122], 186 nM; to `COc1cc2nncc(-c3ccc(Nc4nnc(C5CC5)s4)nc3)c2cc1OC` [Cpd 119], 259 nM. In the case of `COc1cc2nncc(-c3ccc(N4CCn5c(nnc5C(F)(F)F)C4)nc3)c2cc1OC` [Cpd 72] it was 68.6 nM. In the case of `COc1cc2nncc(N3CCc4c(OCC5CC5)cccc4C3=O)c2cc1OC` [Cpd 46] it was 247 nM.

`COC(=O)c1ccc(Cn2cc(-c3cnnc4cc(OC)c(OC)cc34)cn2)cc1` [Cpd 24, Methyl 4-{[4-(6,7-dimethoxycinnolin-4-yl)-1H-pyrazol-1-yl]methyl}benzoate] yielded an IC50 of 48.7 nM. In the case of `COc1cc2nncc(-c3ccc(C(C)=O)c(F)c3)c2cc1OC` [Cpd 100] it was 254 nM; in that of `COc1cc2nncc(-c3cnc(N4CCN(C)CC4)nc3)c2cc1OC` [Cpd 43, 6,7-dimethoxy-4-[2-(4-methylpiperazin-1-yl)pyrimidin-5-yl]cinnoline], 19.9 nM. To `COc1cc2nncc(-c3ccc(N4CCC(O)(c5ccccc5)CC4)nc3)c2cc1OC` [Cpd 108] belongs 21.4 nM; to `COc1cc2nncc(-c3cnn(Cc4ccc(C)cc4)c3)c2cc1OC` [Cpd 21, 6,7-Dimethoxy-4-[1-(4-methylbenzyl)-1H-pyrazol-4-yl]cinnoline], 43.6 nM. The compound `COc1cc2nncc(-c3cnc(-c4cnc(NC(C)C)c(F)c4)c(F)c3)c2cc1OC` [Cpd 115] registered an IC50 of 676 nM.

In turn, `CCOC(=O)c1noc2ccc(-c3cnnc4cc(OC)c(OC)cc34)cc12` [Cpd 52] yielded an IC50 of 48.4 nM. In turn, `COc1cc2nncc(-c3ccc(Nc4cccc(C#N)c4)nc3)c2cc1OC` [Cpd 95] returned an IC50 of 87.9 nM.

Regarding `CCOC(=O)c1n[nH]c2ccc(-c3cnnc4cc(OC)c(OC)cc34)cc12` [Cpd 12, Ethyl 5-(6,7-dimethoxycinnolin-4-yl)-1H-indazole-3-carboxylate], the IC50 came to 12.1 nM. `COc1cc2nncc(-c3ccc(NC(C)C)nc3)c2cc1OC` [Cpd 59] gave an IC50 of 8.23 nM. Compound `COc1cccc(-n2cc(-c3cnnc4cc(OC)c(OC)cc34)cn2)c1` [Cpd 10, 6,7-Dimethoxy-4-[1-(3-methoxyphenyl)-1H-pyrazol-4-yl]cinnoline hydroformate] came in with a 50% inhibitory concentration (IC50) of 68 nM.

`COc1cc2nncc(-c3ccc(NC(C)C)nc3C)c2cc1OC` [Cpd 123] had an IC50 of 18.5 nM. Take `CCS(=O)(=O)c1cccc(-c2cnnc3cc(OC)c(OC)cc23)c1` [Cpd 3, 4-[3-(Ethylsulfonyl)phenyl]-6,7-dimethoxycinnoline]: the IC50 is 29.8 nM.

On to `COc1cc2nncc(-c3cnn(Cc4ccc(-c5ccccc5)cc4)c3)c2cc1OC` [Cpd 23, 4-[1-(Biphenyl-4-ylmethyl)-1H-pyrazol-4-yl]-6,7-dimethoxycinnoline], for which the IC50 was 474 nM.

Consider `COc1cc2nncc(-n3ccc4cc(N5CCOCC5)ccc43)c2cc1OC` [Cpd 20, 6,7-dimethoxy-4-(5-morpholin-4-yl-1H-indol-1-yl)cinnoline hydroformate], for which the IC50 worked out at 209 nM. In the case of `COc1cc2nncc(N3CCc4cc(N5CCCCC5)ccc4C3=O)c2cc1OC` [Cpd 4, 2-(6,7-dimethoxycinnolin-4-yl)-6-piperidin-1-yl-3,4-dihydroisoquinolin-1(2H)-one] it was 167 nM; in that of `COc1cc2nncc(-c3ccc(Oc4ccccc4)nc3)c2cc1OC` [Cpd 87], 152 nM. For the compound `COc1cc2nncc(-c3ccnc(N4CCN(C)C(=O)C4)c3)c2cc1OC` [Cpd 54], half-maximal inhibition (IC50) was put at 55.8 nM. As for `COc1cc2nncc(-c3cccc(N4CCOCC4)c3)c2cc1OC` [Cpd 1, 6,7-dimethoxy-4-(3-morpholin-4-ylphenyl)cinnoline], half-maximal inhibition (IC50) required 57.9 nM. Compound `COc1cc2nncc(-c3cccc(N(C)C)c3)c2cc1OC` [Cpd 15, 3-(6,7-Dimethoxycinnolin-4-yl)-N,N-dimethylaniline hydroformate] showed an IC50 of 22.8 nM.
